Source: PMC10970924 (Life, 2024)

Experiments:
[1] = MTS cytotoxicity assay, statements over the cell panel; assay type: cell-based; conditions: human, tumor and conditionally normal cells; MTS dose–response curves, high concentrations; read-out: Viable cells remaining
Description: The cytotoxicity of the compounds under study was assessed using MTS assay on cell cultures. Cells were seeded into 96-well plates at a concentration of 10,000–20,000 cells/mL. After 24 h, gradient concentrations of the compounds were added to the culture medium and the plates were incubated for 72 h. Subsequently, the culture medium was replaced with MTS reagents (Sigma-Aldrich, Burlington, MA, USA) (MTS:PMS (0.18:0.0092 mg/mL)) and dissolved in phenol-free RPMI 1640 medium. After 2 h of incubation, the resulting water-soluble formazan was measured using the TECAN Infinite M200 Pro microplate reader at wavelengths of 555/750 nm. As a control, equivalent volumes of the solvents in which each compound was dissolved (dH2O/DMSO) were used. To calculate the percentage of viable cells relative to the control, which was considered 100%, dose-response curves were plotted against the logarithm of the compound concentration. The concentration of the compound at which cell growth is inhibited by 50% relative to the control was taken as the inhibitory concentration IC50 and calculated using Origin Pro software 8.0.1. The study was conducted in triplicates and in three independent repetitions.

HCT-15 = test: Colony formation assay; assay type: cell-based; conditions: Homo sapiens, HCT-15, 72 h, incubation three days, read-out: Inhibitory concentration IC50, HCT-15
Description: (§1) Cells were cultured in a 24-well plate with 1 mL of DMEM nutrient medium for 24 h. […] The experiment was conducted in triplicate and in two or three independent repetitions. Only solvent was added to the control wells instead of the test compounds. Incubation with the drugs continued for three days, after which the grown colonies were washed with cold PBS solution and fixed in a fixing buffer (10% acetic acid, 10% methanol in distilled water) for 15 min. The colonies were stained with a 0.4% solution of crystal violet in 20% ethanol for 30 min and then washed 3 times with dH2O and analyzed under a microscope. The colonies were then dissolved in 10% acetic acid for 40 min on a shaker, and the absorbance of the lysate was read at 590 nm. Results were expressed as a percentage relative to the control, and a dose–response curve was plotted to determine the IC50 value.

HSF = test: Colony formation assay; assay type: cell-based; conditions: Homo sapiens, 72 h, incubation three days, read-out: Inhibitory concentration IC50, HSF
Description: as §1

SNB-19 = test: Colony formation assay; assay type: cell-based; conditions: Homo sapiens, SNB-19, 72 h, incubation three days, read-out: Inhibitory concentration IC50, SNB-19
Description: as §1

MDA-MB-231 = test: Colony formation assay; assay type: cell-based; conditions: Homo sapiens, MDA-MB-231, 72 h, incubation three days, read-out: Inhibitory concentration IC50, MDA-MB-231
Description: as §1

NCI-H322M = test: Colony formation assay; assay type: cell-based; conditions: Homo sapiens, 72 h, incubation three days, read-out: Inhibitory concentration IC50, NCI-H322M
Description: as §1

MCF-7 [2] = test: Proliferation by impedance biosensor (RTCA DP Analyzer); assay type: cell-based; conditions: Homo sapiens, MCF7, 72 h, incubation three days, read-out: IC50 inhibitory concentration, MCF-7
MCF-7 [3] = test: Mitochondrial membrane potential, rhodamine 123 flow cytometry; assay type: cell-based, human; conditions: MCF-7, 72 h, concentration corresponding to IC60
Description: Cells were seeded in a 12-well plate at a density of 1 × 10^5 cells/well and incubated for 24 h at 37 °C in a humid atmosphere with 5% CO2 prior to treatment. Cells were bathed in complete DMEM media containing the respective compounds, using a solvent (dH2O/DMSO) as a negative control. After 72 h, the nutrient medium over cells containing the floating cells was collected into tubes, and then the adherent cells were trypsinized and added to the fraction of floating cells. Cell suspensions were then centrifuged, and the pellet was suspended in phosphate-buffered saline (PBS) to a final density of 5 × 10^5 cells/mL. Cell suspension in a volume of 250 μL and 500 nM rhodamine 123 were added to a rounded-well plate, followed by incubation for 30 min at 25° C. Measurements were conducted using flow cytometry on the Millipore Guava EasyCyte HT Flow Cytometer System in a green fluorescent channel.

## COc1cccc2c1C(=O)c1c(O)c3c(c(O)c1C2=O)CC(O)(C(=O)CO)CC3OC1CC(NC(=O)/C=C/c2cnc(C)c3c2COC(C)(C)O3)C(O)C(C)O1 (centres unmarked) [DOX-2, (E)-N-(3-hydroxy-2-methyl-6-((3,5,12-trihydroxy-3-(2-hydroxyacetyl)-10-methoxy-6,11-dioxo-1,2,3,4,6,11-hexahydrotetracen-1-yl)oxy)tetrahydro-2H-pyran-4-yl)-3-(2,2,8-trimethyl-4H-[1,3]dioxino[4,5-c]pyridin-5-yl)acrylamide]
[1]
  viability at 72 h: 20 to 40%
HCT-15
  IC50: 110 ± 21.9 µM
HSF
  IC50: > 100 µM
SNB-19
  IC50: 1.05 ± 0.34 µM
MDA-MB-231
  IC50: 0.34 ± 0.06 µM
NCI-H322M
  IC50: > 100 µM
MCF-7 [2]
  IC50: 8.21 ± 2.93 µM
MCF-7 [3]
  Cells with reduced mitochondrial potential: up to 27%
